Laboratory results published in publication PMC7194175 (Nature plants, 2019).

Legend:
CYP72A15 = biological target: T1, CYP72A15 (Arabidopsis thaliana, UniProt Q9LUC5); assay: feeding of recombinant WAT11 yeast culture, GC-MS of products; format: cell-based; settings: AtCPR1 co-expressed; 30 °C, 16 h
T1 sequence (Q9LUC5 1-512): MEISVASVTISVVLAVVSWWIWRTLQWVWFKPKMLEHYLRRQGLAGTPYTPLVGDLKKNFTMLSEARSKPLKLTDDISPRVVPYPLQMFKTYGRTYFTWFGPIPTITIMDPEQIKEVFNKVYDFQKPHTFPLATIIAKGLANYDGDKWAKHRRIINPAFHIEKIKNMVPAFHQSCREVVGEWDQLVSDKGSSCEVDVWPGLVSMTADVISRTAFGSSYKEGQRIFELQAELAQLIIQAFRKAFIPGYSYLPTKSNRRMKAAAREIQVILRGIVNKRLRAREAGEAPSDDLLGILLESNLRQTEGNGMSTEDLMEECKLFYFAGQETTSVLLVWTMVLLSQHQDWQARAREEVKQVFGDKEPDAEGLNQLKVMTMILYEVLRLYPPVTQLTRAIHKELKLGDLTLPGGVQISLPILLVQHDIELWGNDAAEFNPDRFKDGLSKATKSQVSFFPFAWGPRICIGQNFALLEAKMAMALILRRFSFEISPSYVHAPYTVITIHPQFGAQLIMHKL

CYP72A9 = biological target: T2, CYP72A9 (Arabidopsis thaliana, UniProt F4IW82); assay: as above; format: cell-based; settings: AtCPR1 co-expressed, 30 °C, 16 h
T2 sequence (F4IW82 1-508): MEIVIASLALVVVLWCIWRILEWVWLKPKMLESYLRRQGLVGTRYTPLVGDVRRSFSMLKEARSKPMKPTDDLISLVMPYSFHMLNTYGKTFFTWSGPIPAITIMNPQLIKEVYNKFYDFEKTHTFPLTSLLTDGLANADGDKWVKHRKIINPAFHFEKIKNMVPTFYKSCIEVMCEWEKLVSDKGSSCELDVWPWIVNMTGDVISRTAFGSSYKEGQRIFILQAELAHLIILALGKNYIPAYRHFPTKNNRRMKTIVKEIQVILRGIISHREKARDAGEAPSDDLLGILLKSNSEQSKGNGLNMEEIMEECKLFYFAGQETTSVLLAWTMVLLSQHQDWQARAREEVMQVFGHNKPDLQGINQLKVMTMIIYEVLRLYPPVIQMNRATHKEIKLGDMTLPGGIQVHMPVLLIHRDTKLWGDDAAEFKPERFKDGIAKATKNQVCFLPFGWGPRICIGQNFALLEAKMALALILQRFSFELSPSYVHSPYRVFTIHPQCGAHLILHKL

Compound: C=C1C[C@]23C[C@H]1CC[C@H]2[C@]1(C)CCC[C@@](C)(C(=O)O)[C@H]1[C@@H]3C(=O)O [GA12]
- feeding of recombinant WAT11 yeast culture, GC-MS of products (CYP72A15): utilized ent-kaurenoic acid, GA12 and GA9 as substrates rather than GA4
- feeding of recombinant WAT11 yeast culture, GC-MS of products (CYP72A9; 13-hydroxylation to GA53): hydroxylating GA4, GA9, and GA12 at C13 position to produce GA1, GA20, and GA53

Compound: C=C1C[C@]23C[C@H]1CC[C@H]2[C@@]12CC[C@H](O)[C@@](C)(C(=O)O1)[C@H]2[C@@H]3C(=O)O [GA4]
- feeding of recombinant WAT11 yeast culture, GC-MS of products (CYP72A9; 13-hydroxylation to GA1): hydroxylating GA4, GA9, and GA12 at C13 position to produce GA1, GA20, and GA53
